From patent publication US11701368B2 (EYE CO PTY LTD, priority 2018, dated 2023)
Where two headings read alike, the source gives them in different places.

What was measured:
[1] = system: New Zealand albino rabbit eyes; settings: in vivo
Experimental: (§1) All animals were examined before and after injection using the indirect ophthalmoscope and slit-lamp biomicroscopy. Electroretinography (ERG) was performed on all animals before intravitreal injection and two weeks after injection. The animals were re-examined at this time by indirect ophthalmoscopy and slit-lamp biomicroscopy and were euthanized. The eyes were enucleated and examined with light microscopy.
(§2) Surgeries were performed on the eyes of 25 New Zealand white rabbits. […] The control eyes received 0.1 ml of sterile BSS. All animals were examined before and after injection using indirect ophthalmoscope and slit-lamp biomicroscopy. Electroretinography (ERG) was performed on all animals prior to intravitreal injection and two weeks after injection. The animals were re-examined at this time by indirect ophthalmoscope and slit-lamp biomicroscopy and were euthanized. Their eyes were enucleated and examined with light microscopy.

[2] = system: New Zealand albino rabbit eyes; settings: cited from earlier work; for ERG in the other groups / other eyes: intravitreal 400 μg, 1 mg, 2 mg/0.1 ml and remaining eyes; for time by which all aggregates disappeared: intravitreal
rat model of dry AMD = settings: compared with TA; Provis et al.; cited from earlier work
[3] = biological target: T1, mineralocorticoid receptor (Homo sapiens, UniProt P08235); settings: relative to cortisol; cited from earlier work
T1 sequence (P08235 1-984): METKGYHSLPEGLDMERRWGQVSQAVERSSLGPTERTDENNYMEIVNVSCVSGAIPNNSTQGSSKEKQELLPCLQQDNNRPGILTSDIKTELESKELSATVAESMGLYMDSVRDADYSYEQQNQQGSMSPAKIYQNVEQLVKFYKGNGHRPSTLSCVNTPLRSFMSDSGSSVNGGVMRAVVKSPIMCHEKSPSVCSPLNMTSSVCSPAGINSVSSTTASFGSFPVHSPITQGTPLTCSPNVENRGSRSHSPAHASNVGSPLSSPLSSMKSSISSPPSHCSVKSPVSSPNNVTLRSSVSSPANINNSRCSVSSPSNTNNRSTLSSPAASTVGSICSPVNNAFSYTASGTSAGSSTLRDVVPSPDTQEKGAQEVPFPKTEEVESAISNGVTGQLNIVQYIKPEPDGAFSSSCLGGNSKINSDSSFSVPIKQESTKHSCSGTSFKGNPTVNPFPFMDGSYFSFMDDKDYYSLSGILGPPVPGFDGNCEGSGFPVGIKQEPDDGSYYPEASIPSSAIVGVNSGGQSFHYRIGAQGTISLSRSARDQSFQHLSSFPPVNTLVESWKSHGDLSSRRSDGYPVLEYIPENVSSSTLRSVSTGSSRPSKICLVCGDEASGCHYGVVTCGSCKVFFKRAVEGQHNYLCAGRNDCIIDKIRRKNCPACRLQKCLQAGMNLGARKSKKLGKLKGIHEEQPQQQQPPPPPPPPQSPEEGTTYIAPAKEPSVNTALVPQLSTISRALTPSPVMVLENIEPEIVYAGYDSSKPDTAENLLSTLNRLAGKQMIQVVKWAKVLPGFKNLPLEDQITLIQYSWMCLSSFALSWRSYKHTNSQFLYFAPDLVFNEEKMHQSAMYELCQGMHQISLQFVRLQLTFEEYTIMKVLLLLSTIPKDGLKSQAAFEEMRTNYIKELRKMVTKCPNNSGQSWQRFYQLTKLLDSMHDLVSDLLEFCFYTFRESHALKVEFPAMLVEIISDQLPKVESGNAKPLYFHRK

[4] = biological target: T1, mineralocorticoid receptor; assay: Mineralocorticoid receptor activity (MR potency) of corticosterones; settings: relative potency, hydrocortisone (cortisol) = 1
[5] = system: New Zealand albino rabbit eyes; assay: Intravitreal toxicology of fludrocortisone acetate in rabbits; settings: every 4 weeks; based on difference in vitreous volume between man and rabbit
Experimental: as §1, §2

glucocorticoid receptor = biological target: T2, glucocorticoid receptor (Homo sapiens, UniProt P04150); settings: relative to cortisol; cited from earlier work
T2 sequence (P04150 1-777): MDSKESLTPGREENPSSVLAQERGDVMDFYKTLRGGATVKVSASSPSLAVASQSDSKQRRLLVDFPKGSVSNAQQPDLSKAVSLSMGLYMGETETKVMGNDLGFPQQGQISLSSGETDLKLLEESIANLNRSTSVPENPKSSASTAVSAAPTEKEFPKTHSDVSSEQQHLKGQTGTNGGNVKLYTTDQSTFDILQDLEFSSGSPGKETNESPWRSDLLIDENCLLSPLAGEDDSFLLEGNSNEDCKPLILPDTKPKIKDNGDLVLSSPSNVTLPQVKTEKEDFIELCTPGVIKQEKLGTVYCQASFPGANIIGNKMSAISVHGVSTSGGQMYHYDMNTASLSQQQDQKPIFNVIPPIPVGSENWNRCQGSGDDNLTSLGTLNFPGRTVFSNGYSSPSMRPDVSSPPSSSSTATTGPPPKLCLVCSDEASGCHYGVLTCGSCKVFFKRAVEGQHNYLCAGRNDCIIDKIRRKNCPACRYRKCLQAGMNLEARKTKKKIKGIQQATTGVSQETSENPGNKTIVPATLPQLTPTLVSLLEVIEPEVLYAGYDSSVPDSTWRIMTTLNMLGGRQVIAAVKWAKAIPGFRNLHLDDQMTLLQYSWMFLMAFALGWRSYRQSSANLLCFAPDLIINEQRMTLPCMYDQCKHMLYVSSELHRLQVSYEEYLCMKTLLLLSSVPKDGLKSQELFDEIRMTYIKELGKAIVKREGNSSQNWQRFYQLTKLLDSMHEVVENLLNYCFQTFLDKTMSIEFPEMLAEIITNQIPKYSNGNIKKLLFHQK

CC(=O)OCC(=O)[C@@]1(O)CC[C@H]2[C@@H]3CCC4=CC(=O)CC[C@]4(C)[C@@]3(F)[C@@H](O)C[C@@]21C [Fludrocortisone acetate, 9-α-Fiuoro-11β. 17α, 21-trihydroxy-4-pregnene-3, 20 dione acetate]
tolerability in a panel of animal toxicology studies [1]: well-tolerated | histological examination of retinal sections (light microscopy) ([2]; 400 μg to 4 mg/0.1 ml): no evidence of toxicity or vacuolization except for one eye in the 4 mg group | IOP ([2]; all groups): normal | ERG in the other groups / other eyes ([2]; two weeks after injection): normal ERG | ERG in the other groups / other eyes ([2]; two weeks after injection, listed as FCA): no other problems of reductions in ERG | eyes with intravitreal haemorrhage and reduced ERG ([2]; intravitreal 4 mg/0.1 ml, 25 normal rabbits): Two | eyes with decreases in ERG ([2]; intravitreal 4 mg/0.1 ml, two weeks after injection): one | time by which all aggregates disappeared ([2]; 2-mg group): 22 ± 8 days | time by which all aggregates disappeared ([2]; 4-mg group): 33 ± 7 days | inflammation in anterior or posterior segment (slit lamp biomicroscopy, indirect ophthalmoscopy) ([2]; up to 40 days of observations): did not show any evidence of significant inflammation | preventing cell death, macrophage recruitment, preserving a- and b-wave ERG amplitude (rat model of dry AMD): superior to TA | mineralocorticoid effect, times higher than cortisol [3]: 250 times | MR potency [4]: 200 | human equivalent dose [5]: 67 mg/eye | glucocorticoid activity, times higher than cortisol (glucocorticoid receptor): ten
